IC50 data for 1 molecule are collected here from PMC4030036, “Small molecule kinase inhibitor LRRK2-IN-1 demonstrates potent activity against colorectal and pancreatic cancer through inhibition of doublecortin-like kinase 1” (Molecular Cancer, 2014).

Assay [1] deals with T1, Doublecortin-like kinase 1 (DCLK1) (Homo sapiens, UniProt O15075).
T1 sequence (O15075 1-740): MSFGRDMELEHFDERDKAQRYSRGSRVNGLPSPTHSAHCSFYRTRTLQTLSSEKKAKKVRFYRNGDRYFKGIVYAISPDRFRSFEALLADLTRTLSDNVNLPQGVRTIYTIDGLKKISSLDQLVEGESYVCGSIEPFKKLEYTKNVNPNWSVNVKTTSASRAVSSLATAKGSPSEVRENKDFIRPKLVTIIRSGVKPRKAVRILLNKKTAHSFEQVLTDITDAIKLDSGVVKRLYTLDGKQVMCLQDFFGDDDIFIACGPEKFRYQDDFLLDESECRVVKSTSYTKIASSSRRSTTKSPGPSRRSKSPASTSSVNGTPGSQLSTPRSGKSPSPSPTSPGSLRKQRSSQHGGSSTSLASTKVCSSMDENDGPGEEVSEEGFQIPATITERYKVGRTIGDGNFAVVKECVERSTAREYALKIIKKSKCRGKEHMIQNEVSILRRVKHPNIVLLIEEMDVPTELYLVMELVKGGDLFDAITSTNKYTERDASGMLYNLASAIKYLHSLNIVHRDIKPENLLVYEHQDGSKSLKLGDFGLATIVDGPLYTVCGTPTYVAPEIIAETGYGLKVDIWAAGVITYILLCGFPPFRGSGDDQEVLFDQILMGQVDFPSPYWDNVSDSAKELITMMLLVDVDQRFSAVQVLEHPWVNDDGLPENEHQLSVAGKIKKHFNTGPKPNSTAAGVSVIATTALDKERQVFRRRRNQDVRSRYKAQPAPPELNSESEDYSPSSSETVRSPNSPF
Put plainly: in vitro kinase assay (Kinase-Glo luminescence) with purified active DCLK1, autocamtide II substrate and […] ATP. The class given is biochemical.

For assay [2], the system named is DLD-1. The assay can be described thus: cells. The conditions noted are these: Homo sapiens, DLD-1; 48 h MTT. On the set-up: MTT proliferation assay, sigmoidal dose-response fit, colon and pancreatic cancer cell lines.
For assay [3], the system named is MiaPaCa-2. The assay can be described thus: cells. On the set-up: MTT proliferation assay, sigmoidal dose-response fit, colon and pancreatic cancer cell lines. The settings on record: Homo sapiens, MIA PaCa-2; 48 h MTT.
Assay [4] deals with SW1990. The assay can be described thus: cells. Also on record: MTT proliferation assay, sigmoidal dose-response fit, colon and pancreatic cancer cell lines. The settings on record: Homo sapiens, SW1990; 48 h MTT.
Assay [5] has as its system HT-29. The assay can be described thus: cells. Also on record: MTT proliferation assay, sigmoidal dose-response fit, colon and pancreatic cancer cell lines. The conditions noted are these: Homo sapiens, HT-29; 48 h MTT.

pIC50: −log10 of the molar value.

Regarding `COc1cc(C(=O)N2CCC(N3CCN(C)CC3)CC2)ccc1Nc1ncc2c(n1)N(C)c1ccccc1C(=O)N2C` [LRRK2-IN-1], the negative logarithm of the IC50 (pIC50) in assay [1] is 8.58; in assay [2], 5.49; in assay [3] it was 5.70; in assay [4], 5.28; in assay [5], 5.68.
